Measured values: article PMC9911596 (Nature Communications, 2023)
Where a chain is given by its changes, count along the chain named.

Experiments:
[1] = target: T1, Vtc1/Vtc3/Vtc4 complex (VTC complex) (Saccharomyces cerevisiae, UniProt P47075+Q02725, Q02725:K126A/Q02725:K129A/Q02725:K133A); experiment: polyP synthesis, TBE-PAGE; assay type: biochemical; conditions: activator; 15 mM ATP, 10 mM MgCl2, 1 mM MnCl2, 0.5 mM pyrophosphate, 27 °C, 4 h; SPX KSC mutant
T1 construct: full-length subunits co-expressed in Expi293F; Vtc1 C-terminal HA, Vtc3 N-terminal 3xFlag, Vtc4 C-terminal 2xStrep; detergent-purified; 3:1:1 pentamer; with Vacuolar transporter chaperone complex subunit 1
T1 sequence (P47075 1-721): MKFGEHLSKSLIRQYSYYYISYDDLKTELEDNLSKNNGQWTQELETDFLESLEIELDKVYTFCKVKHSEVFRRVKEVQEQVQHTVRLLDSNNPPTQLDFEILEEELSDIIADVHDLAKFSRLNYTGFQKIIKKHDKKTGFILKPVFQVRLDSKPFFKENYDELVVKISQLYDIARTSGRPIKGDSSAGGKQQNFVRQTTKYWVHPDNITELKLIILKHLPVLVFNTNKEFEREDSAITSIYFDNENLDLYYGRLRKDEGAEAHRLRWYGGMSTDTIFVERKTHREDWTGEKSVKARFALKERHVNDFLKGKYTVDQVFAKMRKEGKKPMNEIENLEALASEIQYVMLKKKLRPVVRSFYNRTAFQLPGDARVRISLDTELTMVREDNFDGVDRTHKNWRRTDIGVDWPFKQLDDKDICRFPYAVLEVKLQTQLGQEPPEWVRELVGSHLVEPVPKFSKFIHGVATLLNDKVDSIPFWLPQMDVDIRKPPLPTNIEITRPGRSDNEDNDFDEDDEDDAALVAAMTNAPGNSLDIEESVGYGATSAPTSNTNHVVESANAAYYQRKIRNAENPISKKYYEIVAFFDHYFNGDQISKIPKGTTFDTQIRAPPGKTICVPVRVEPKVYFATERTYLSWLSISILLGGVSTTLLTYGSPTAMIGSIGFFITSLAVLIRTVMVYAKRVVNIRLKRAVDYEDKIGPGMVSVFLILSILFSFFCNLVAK
T1 sequence (Q02725 1-835 K126A/K129A/K133A): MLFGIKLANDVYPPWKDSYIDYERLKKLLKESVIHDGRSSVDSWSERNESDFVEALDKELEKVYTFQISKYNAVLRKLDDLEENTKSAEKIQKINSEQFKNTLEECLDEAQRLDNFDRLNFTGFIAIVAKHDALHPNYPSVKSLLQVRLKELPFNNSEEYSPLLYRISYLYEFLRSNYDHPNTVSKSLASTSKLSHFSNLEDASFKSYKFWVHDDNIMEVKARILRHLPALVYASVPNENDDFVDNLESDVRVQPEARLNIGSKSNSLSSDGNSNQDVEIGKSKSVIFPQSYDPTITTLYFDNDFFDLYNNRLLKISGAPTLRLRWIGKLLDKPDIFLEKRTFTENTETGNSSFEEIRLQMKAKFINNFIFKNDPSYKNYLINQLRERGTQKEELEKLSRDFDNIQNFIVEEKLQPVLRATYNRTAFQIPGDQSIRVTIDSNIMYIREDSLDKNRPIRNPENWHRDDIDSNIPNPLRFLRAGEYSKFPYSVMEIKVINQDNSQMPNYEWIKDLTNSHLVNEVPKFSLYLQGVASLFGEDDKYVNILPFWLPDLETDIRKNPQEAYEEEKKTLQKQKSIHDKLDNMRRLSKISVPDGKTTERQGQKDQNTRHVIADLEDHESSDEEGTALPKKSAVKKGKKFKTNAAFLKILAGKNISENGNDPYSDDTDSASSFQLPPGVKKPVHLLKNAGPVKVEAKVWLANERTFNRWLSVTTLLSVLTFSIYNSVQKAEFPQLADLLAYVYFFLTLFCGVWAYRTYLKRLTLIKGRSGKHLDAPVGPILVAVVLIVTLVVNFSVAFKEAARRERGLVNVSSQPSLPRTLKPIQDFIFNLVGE
T1 sequence (P40046 2-129 partner): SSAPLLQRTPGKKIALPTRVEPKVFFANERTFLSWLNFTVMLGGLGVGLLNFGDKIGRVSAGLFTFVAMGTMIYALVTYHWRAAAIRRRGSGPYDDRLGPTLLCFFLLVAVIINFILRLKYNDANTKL

[2] = target: T2, Vtc1/Vtc3/Vtc4 complex (VTC complex) (Saccharomyces cerevisiae, UniProt P47075+Q02725, Q02725:K333A/Q02725:K362A/Q02725:K364A/Q02725:Y380F); experiment: polyP synthesis, TBE-PAGE; assay type: biochemical; conditions: activator; 15 mM ATP, 10 mM MgCl2, 1 mM MnCl2, 0.5 mM pyrophosphate, 27 °C; TTM cleft (second site) mutant
T2 construct: full-length subunits co-expressed in Expi293F; Vtc1 C-terminal HA, Vtc3 N-terminal 3xFlag, Vtc4 C-terminal 2xStrep; detergent-purified; 3:1:1 pentamer; with Vacuolar transporter chaperone complex subunit 1
T2 sequence (P47075 1-721): T1 sequence (P47075 1-721)
T2 sequence (Q02725 1-835 K333A/K362A/K364A/Y380F): T1 sequence (Q02725 1-835 K126A/K129A/K133A) with A126K, A129K, A133K, K333A, K362A, K364A, Y380F
T2 sequence (P40046 2-129 partner): T1 sequence (P40046 2-129 partner)

Question: What does the source list for `O=P(O)(O)O[C@H]1[C@H](OP(=O)(O)O)[C@@H](OP(=O)(O)O)[C@H](OP(=O)(O)O)[C@@H](OP(=O)(O)O)[C@H]1OP(=O)(O)O` [InsP6]?
Answer: polyP synthesis, TBE-PAGE [1]: residues had little effect on polyP synthesis; polyP synthesis, TBE-PAGE [2]: had little impact on InsP6-stimulated polyP synthesis by VTC complex
